# Measured values reported in patent publication US11549950B2, “Cryptic metabolites and method for activating silent biosynthetic gene clusters in diverse microorganisms” (The Trustees of Princeton University, priority 2017, dated 2023).
# Assays:
# Assay in all cases: Antibacterial bioactivity (MIC) of keratinimicins, Table 1
# [1] = system: C. difficile; type: cell-based, Clostridium difficile
# Protocol: (§1) To determine antibacterial and antiviral performance, assays were performed. In one example, antibacterial assays were carried out by Micromyx, LLC in accordance with methods from the Clinical and Laboratory Standards Institute. Minimal inhibitory concentrations were determined with the following strains: S. aureus ATCC 29213, S. aureus MMX 2011, S. pneumoniae ATCC 49619, S. pyogenes MMX 6253, S. agalactiae MMX 6189, E. faecalis ATCC 29212, E. faecalis MMX 486, B. subtilis ATCC 6633, E. coli ATCC 25922, K. pneumoniae MMX 214, P. aeruginosa ATCC 27853, A. baumannii ATCC 19606, V. cholerae BAA-2163, C. difficile ATCC 700057, and B. fragilis ATCC 25285.
# (§2) These compounds are bioactive. In some instances, the compounds show activity against gram-positive bacteria. For example, although they may also show activity against gram-negative targets, the bioactivity of Keratinimicin B and C (FIGS. 21B and 21C) were tested against various gram-positive targets.
# [2] = system: S. pneumoniae; type: cell-based, Streptococcus pneumoniae
# Protocol: as §1, §2
# [3] = system: E. faecalis VRE; type: cell-based, Enterococcus faecalis
# Protocol: as §1, §2
# [4] = system: E. faecalis VSE; type: cell-based, Enterococcus faecalis
# Protocol: as §1, §2
# [5] = system: S. agalactiae; type: cell-based, Streptococcus agalactiae
# Protocol: as §1, §2
# [6] = system: S. pyogenes; type: cell-based, Streptococcus pyogenes
# Protocol: as §1, §2
# [7] = system: S. aureus MSSA; type: cell-based, Staphylococcus aureus
# Protocol: as §1, §2
# [8] = system: S. aureus MRSA; type: cell-based, Staphylococcus aureus
# Protocol: as §1, §2
structure (smiles),measurement,setting,value
CO[C@H]1[C@H](C)O[C@@H](O[C@@H]2c3ccc(c(Cl)c3)Oc3cc4cc(c3O[C@@H]3O[C@H](CO)[C@@H](O)[C@H](O)[C@H]3O[C@H]3C[C@H](N)[C@@H](O)C(C)O3)Oc3ccc(cc3)[C@@H](O)[C@@H](NC(=O)[C@H](N)c3ccc(O)c(Cl)c3)C(=O)N[C@@H](Cc3ccccc3)C(=O)N[C@H]4C(=O)N[C@H]3C(=O)N[C@@H]2C(=O)N[C@H](C(=O)O)c2cc(O)cc(O)c2-c2cc3ccc2O)C[C@@H]1N (some centres unmarked) [Keratinimicin B],Bioactivity (minimal inhibitory concentration),[1],0.5 µg/mL
same,Bioactivity (minimal inhibitory concentration),[2],0.25 µg/mL
same,Bioactivity (minimal inhibitory concentration),[3],>64 µg/mL
same,Bioactivity (minimal inhibitory concentration),[4],4 µg/mL
same,Bioactivity (minimal inhibitory concentration),[5],1 µg/mL
same,Bioactivity (minimal inhibitory concentration),[6],0.5 µg/mL
same,Bioactivity (minimal inhibitory concentration),[7],8 µg/mL
same,Bioactivity (minimal inhibitory concentration),[8],4 µg/mL
